Source: patent US20050281890A1 (priority 2004, published 2005)
Where two headings read alike, the source gives them in different places.

Key:
[1] = tested on: 8×16-mm full-thickness excisional wounds; conditions: for wound closure: p<0.05
Method: FIG. 3. […] Two 8×16 mm full-thickness excisional wounds (inset) were placed on the dorsal skin of C57BL/6 male mice (8 wk old). […] For determination of surface microflora, wounds (treated with either 1.25 micromole H2O2/wound, open bar, or saline, closed bar) were swabbed (24-48 h post wounding) for 20 sec with an alginate-tipped applicator. Quantitative assessment of surface bacterial load was performed. For deep tissue wound microflora, 48 h after wounding eschar tissue was removed, wound bed tissue underneath eschar was sampled and quantitative assessment of bacterial load was performed. Values shown represent mean±SD of CFU of four observations. C.
Briefly, two 8×16-mm full-thickness excisional wounds (FIG. 3, insets) were placed on the dorsal skin of C57BL/6 male mice (8 weeks old). Each of the two wounds was topically treated either with H2O2 or saline.

[2] = tested on: CD31; conditions: 1.25 micromole/wound, days 0-4; day 8 post-wounding; vs control
Method: (§1) FIG. 4. […] Paired excisional wounds (FIG. 2) were either treated with placebo saline or H2O2 (1.25 micromole/wound, days0-4, once daily). Wound-edge tissue was collected at indicated times after wounding. A. Ribonuclease protection assay (RPA) showing kinetics of angiogenesis-related mRNA expression in a placebo-treated wound. […] C. Blood flow imaging of wounds was performed non-invasively using a Laser Doppler blood flow imaging device. Images reflecting the blood flow (right panel) and a digital photo (region of interest; left panel) from post-heal tissue are shown. Data i.e., mean±SD of the blood flow is presented (bar graph). The mean represents the arithmetic mean of all valid blood flow values for pixels within the region of interest.
(§2) Paired excisional wounds were either treated with placebo saline or H2O2 (1.25 micromole/wound, days 0-4, once daily). Wound-edge tissue was collected at indicated times after wounding.

[3] = tested on: Flt-1 mRNA; conditions: 1.25 micromole/wound, once daily, days 0-4; wound-edge tissue
Method: as §1, §2

[4] = tested on: VEGF mRNA; conditions: 1.25 micromole/wound, once daily, days 0-4; wound-edge tissue
Method: as §1, §2

[5] = tested on: wound blood flow; conditions: 1.25 micromole/wound, days 0-4, once daily; post-heal tissue; vs placebo saline
Method: as §1, §2
Images reflecting the blood flow (right panel) and a digital photo (region of interest; left panel) from post-heal tissue are shown. […] The mean represents the arithmetic mean of all valid blood flow values for pixels within the region of interest.

[6] = tested on: focal adhesion kinase (FAK); conditions: HMEC-1 microvascular endothelial cells; various doses, 0.1 mM for kinetics
Method: Human microvascular endothelial cells (HMEC-1) were treated with H2O2 for indicated dose and duration. Phosphorylation of FAK was detected using Western blot and phosphorylation site-specific antibodies against FAK. Native FAK or β-actin was blotted to show equal loading. A. Effect of various dose of H2O2 treatment on phosphorylation (Ty 925) state of FAK. B. Kinetics of site-specific activation phophorylation of FAK in HMEC cells following H2O2 (0.1 mM) treatment.
Human microvascular endothelial cells (HMEC-1) were treated with H2O2 for indicated dose and duration. Phosphorylation of FAK was detected using Western blot and phosphorylation site-specific antibodies against FAK. Native FAK or β-actin was blotted to show equal loading.

[7] = tested on: focal adhesion kinase (FAK); conditions: wound-edge tissue, 1.25 micromole/wound, 30 minutes after wounding
Method: Human microvascular endothelial cells (HMEC-1) were treated with H2O2 for indicated dose and duration. Phosphorylation of FAK was detected using Western blot and phosphorylation site-specific antibodies against FAK. Native FAK or β-actin was blotted to show equal loading. […] B. Kinetics of site-specific activation phophorylation of FAK in HMEC cells following H2O2 (0.1 mM) treatment. […] Paired excisional wounds (FIG. 2) were either treated with placebo saline or H2O2 (1.25 micromole/wound). Wound-edge tissue was collected 30 min after wounding. FAK phosphorylation in wound edge tissue was determined using Western blot. Data from three animals (#1-#3) are shown.
In FIG. 5C, paired excisional wounds were either treated with placebo saline or H2O2 (1.25 micromole/wound). Wound-edge tissue was collected 30 minutes after wounding. FAK phosphorylation in wound edge tissue was determined using Western blot. Data from three animals (#1-#3) are shown.

[8] = tested on: keratin 14; conditions: p47phox knockout mice; 1.25 micromoles/wound, days 0-4; day 18 post-wounding, after closure
Method: Two excisional wounds (FIG. 2) were-laced on the dorsal skin of 8 wk old C57BL/6, MCP-1 or p47phox KO mice. Each of the two wounds was treated with either saline or H2O2 (1.25 micromoles/wound; days 0-4). […] C. […] D. Keratin 14 (green fluorescence) expression in skin of p47phox KO mice harvested from wound sites after closure on day 18 post-wounding.
Briefly, two excisional wounds were placed on the dorsal skin of eight-week-old C57BL/6, MCP-1 or p47^phox knockout mice. Each of the two wounds was treated with either saline or H2O2 (1.25 micromoles/wound; days 0-4).

Which results are given for `OO` [H2O2, hydrogen peroxide]?
tissue damage / survival ([1]; 62.5 micromoles/wound (0.025 ml of 7.5% solution), once on day 0): caused necrotic tissue damage and severe injury, leading to death of the mice; wound closure ([1]; high dose 25 micromoles/wound (0.025 ml of 3% solution), once daily days 0-4, compared to low dose 1.25 micromoles/wound): adversely affected closure; wound closure ([1]; low-dose 1.25 micromoles/wound (0.025 ml of 0.15% solution), topical, once daily, days 0-4, vs placebo saline side): facilitated closure moderately; vascularization (CD31 stain) [2]: better vascularization; wound-induced Flt-1 mRNA expression [3]: further augmented; wound-induced VEGF mRNA expression [4]: further augmented; blood flow [5]: increased blood flow; phosphorylation of FAK [6]: Induced Phosphorylation; phosphorylation of FAK [7]: Induced Phosphorylation; keratin 14 expression [8]: comparable to normal skin
